Test results published in US12295973B2 (Fred Hutchinson Cancer Center, priority 2017, dated 2025).
Where a SMILES comes first, the peptide text is derived from it. [ ]: non-standard residue; d: D form. The star is where a group is joined. dPhe(4-NHCONH2) = NC(=O)Nc1ccc(C[C@@H](N)C(=O)O)cc1; Dihydroorotyl(S) = O=C1C[C@@H](C(=O)*)NC(=O)N1; dPhe(4-Cl) = N[C@H](Cc1ccc(Cl)cc1)C(=O)O; Phe(4-NH2) = Nc1ccc(C[C@H](N)C(=O)O)cc1; d2Nal = N[C@H](Cc1ccc2ccccc2c1)C(=O)O; Lys(iPr) = CC(C)NCCCC[C@H](N)C(=O)O; d3Pal = N[C@H](Cc1cccnc1)C(=O)O

Assays:
functional HSCs = assay: Adapted competitive repopulation functional assay (BM and spleen cells of treated L-TBI mice transplanted into irradiated hosts); format: in vivo, mouse; conditions: cells collected day 14 after L-TBI; vs recipients of cells from vehicle-treated mice
Description: To investigate the specific regenerative effects mediated by LHRH-Ant treatment on the hematopoietic stem and progenitor cell (HSPC) compartment, BM were analyzed at several time points after L-TBI. […] To determine hematopoietic functional potential, colony-forming unit activity was next quantified to determine the effects of LHRH-Ant on the recovery of committed hematopoietic progenitor cells. […] Consistent with these functional findings, on day 14 after L-TBI, expansion of LSKs as well as their downstream progenitors in mice given LHRH-Ant were found (FIGS. 2F, 2G). […] However, given the changes in HSC phenotype after radiation, the standard competitive repopulation functional assay was adapted to evaluate the presence and relative quantity of functional HSCs after L-TBI. Specifically, all cells from the BM and spleen (to account for potential changes to circulating HSCs) were collected and transplanted from vehicle or LHRH-Ant treated mice at day 14 after L-TBI into irradiated hosts (along with a rescue dose of congenic WBM cells to ensure survival). […]
Bone marrow transplant: In the competitive BM transplant, whole BM from CD45.2+ (vehicle or LHRH-Ant) donors and were collected and transplanted into lethally irradiated CD45.1+ mice (1100 cGy TBI, split dose) along with 2.5×10^5 CD45.1+ competitors, through tail vein injection. Donor chimerism was monitored monthly after transplant. […]

mice exposed to L-TBI = assay: Mouse survival after lethal total body irradiation (L-TBI, 840cGy); format: in vivo
Excerpt: Description. Inhibition of sex steroids, which can be achieved in a reversible fashion pharmacologically, is a well-described strategy to promote lymphopoiesis in the BM and thymus^8,7,14,15. Although the most common method of sex steroid ablation clinically has been to use LHRH-agonists, it was described that an LHRH-Antagonist represents a more rational approach to promote immediate ablation of sex steroids for immune regeneration as it is far more rapid and abrogates the initial surge in sex steroids that LHRH-Agonist cause^16. Taken together with the impact of sex steroid inhibition on HSC function and the rapid regenerative effects of LHRH-Ant, it was hypothesized that LHRH-Ant could represent a rational non-cellular medical countermeasure for mitigating radiation injury and promoting hematopoietic regeneration when administered after hematopoietic insult. […] It was then tested if LHRH-Ant could mediate even greater mouse survival when administered multiple times.
Methods. […] B6.SJL-Ptprca Pepcb/BoyJ (CD45.1) male mice (The Jackson Laboratory) were used between 7 and 12 weeks of age for transplant. Mice were irradiated with a Gammacell 40 Irradiator (Cs-137), with an average dose rate of 95 cGy/min, in a plexiglass mouse pie cage. To assess mouse survival after radiation, mice were monitored for up to 60 days after TBI. To adjust for differences in weight, identical mice were purchased from Jackson and cages randomly distributed over different groups. All animal protocols were approved by the Memorial Sloan Kettering Cancer Center Institutional Animal Care and Use Committee.
Reagents: Degarelix (as acetate), a LHRH-Ant (Firmagon), was resuspended in sterile water for injection and administered S.C. to mice at a dose of 40 mg/kg. To evaluate the radiomitigative effect of LHRH-Ant on survival, mice were treated subcutaneously (S.C.) with a single injection of the LHRH-Ant or a saline control solution (PBS). Degarelix was purchased from the Memorial Sloan-Kettering Cancer Center Pharmacy. […] MDV3100 (selleckchem) was resuspended in a mixture of 45% PBS, 45% PEG and 10% DMSO and administered daily to mice by oral gavage at a dose of 10 mg/kg. 5-FU (InvivoGen) was administered to mice intraperitoneally (I.P.) at a dose of 150 mg/kg once every 7 days consecutively for 3 times as previously described^34,47,49.

CC(=O)N[C@H](Cc1ccc2ccccc2c1)C(=O)N[C@H](Cc1ccc(Cl)cc1)C(=O)N[C@H](Cc1cccnc1)C(=O)N[C@@H](CO)C(=O)N[C@@H](Cc1ccc(NC(=O)[C@@H]2CC(=O)NC(=O)N2)cc1)C(=O)N[C@H](Cc1ccc(NC(N)=O)cc1)C(=O)N[C@@H](CC(C)C)C(=O)N[C@@H](CCCCNC(C)C)C(=O)N1CCC[C@H]1C(=O)N[C@H](C)C(N)=O [LHRH-Ant, Degarelix] (Ac-[d2Nal][dPhe(4-Cl)][d3Pal]S[Phe(4-NH2)](Dihydroorotyl(S))[dPhe(4-NHCONH2)]L[Lys(iPr)]P[dA]-NH2)
hematopoietic reconstitution of host mice (functional HSCs): significantly better hematopoietic reconstitution
survival after L-TBI (mice exposed to L-TBI; LHRH-Ant given 24 h after L-TBI, vs vehicle, male mice): significant increase in survival
survival after L-TBI (mice exposed to L-TBI; administered 48 h after L-TBI): significantly enhanced mouse survival
survival after L-TBI in female mice (mice exposed to L-TBI; female mice): statistically significant benefit in survival
survival after L-TBI in surgically castrated mice (mice exposed to L-TBI; male mice castrated 5 days prior to TBI, simultaneous LHRH-Ant): restored the benefits in mouse survival
survival after L-TBI, multiple administrations (mice exposed to L-TBI; treatment 24 h and 15 days after L-TBI, vs single treatment): did not significantly enhance the survival benefit
